This is an account of results in US20240284910A1, “HERBICIDAL COMPOSITIONS” (SYNGENTA CROP PROTECTION AG, priority 2021, published 2024).

Common to all, as to type: in vivo
Conditions in all cases: sprayed, evaluated after 13 days

For experiment [1], the system named is Amaranthus retroflexus (AMARE). The experiment can be described thus: Post-emergence glasshouse phytotoxicity test, AMARE. How it is done:
(§1) Seeds of Chenopodium album (CHEAL), Ipomoea hederacea (IPOHE), Amaranthus retroflexus (AMARE) and Abutilon threophrasti (ABUTH) and Stellaria media (STEME) were sown in standard sterilised soil in pots. After cultivation for 8 days under controlled conditions in a glasshouse (at 24/19° C., day/night; 16 hours light; no humidity control), the plants were sprayed at 500 I/Ha with an aqueous spray solution derived from the formulation of the technical active ingredients in a small amount of acetone and a solvent and emulsifier mixture referred to as IF50 (11.12% Emulsogen EL360 TM+44.44% N-methylpyrrolidone+44.44% Dowanol DPM glycol ether), to create a 50 g/l solution which was then diluted using 0.2% Genapol XO80 (CAS Number: 9043-30-5) as diluent to give the desired final dose of test compound. Where active ingredients were applied as mixtures, aqueous spray solutions were prepared as above, containing both active ingredients. The test plants were then grown under controlled conditions in a glasshouse (at 24/18° C., day/night; 15 hours light; 50% humidity) and watered twice daily. After 13 days, the test was evaluated visually for percentage phytotoxicity to the plants (where 100=total damage to plant; 0=no damage to plant) when compared to control untreated plants. Two to four replicates were applied for each treatment in a randomised block test design.
(§2) 22., E=X+Y−(X*Y/100), where • X=average percent phytotoxicity of herbicide A when applied at a certain rate • Y=average percent phytotoxicity using herbicide B when applied at a certain rate • E=the expected effect of the mixture of herbicides A and B as calculated from the Colby formula.

The subject of experiment [2] is Ipomoea hederacea (IPOHE). The experiment can be described thus: Post-emergence glasshouse phytotoxicity test, IPOHE. How it is done: as §1, §2
Experiment [3] deals with Abutilon threophrasti (ABUTH). As to the kind of experiment: Post-emergence glasshouse phytotoxicity test, ABUTH. The method, then: as §1, with “Where active ingredients were applied as mixtures, aqueous spray solutions were prepared as above, containing both active ingredients. The test plants were then grown under controlled conditions in a glasshouse (at 24/18° C., day/night; 15 hours light; 50% humidity) and watered twice daily.” left out, “Two to four replicates were applied for each treatment in a randomised block test design.” left out
as §2

The subject of experiment [4] is Chenopodium album (CHEAL). The experiment can be described thus: Post-emergence glasshouse phytotoxicity test, CHEAL. How it is done:
as §1, §2

Experiment [5] relates to Stellaria media (STEME). The experiment can be described thus: Post-emergence glasshouse phytotoxicity test, STEME. How it is done: as §1, §2

Consider `CN1C[C@H](c2cccc(C(F)(F)F)c2)[C@@H](C(=O)Nc2ccccc2F)C1=O` [I-A], for which the “Observed (O) percentage phytotoxicity” value in experiment [1] (rate 6.25 g/ha) stood at 0%; in experiment [1] (rate 25 g/ha), 8%; in experiment [2] (rate 6.25 g/ha) it was 25%; in experiment [2] (rate 12.5 g/ha) it was 38%; in experiment [3] (rate 12.5 g/ha) it was 10%; in experiment [4] (rate 6.25 g/ha) it was 0%. For the same compound, the “Observed (O) percentage phytotoxicity” value in experiment [4] (rate 12.5 g/ha) turned out to be 28%; in experiment [5] (rate 6.25 g/ha) it was 33%; in experiment [5] (rate 12.5 g/ha, 100=total damage, 0=no damage) it was 58%.

For `Cc1nnc(NC(=O)c2ccc(C(F)(F)F)n3c(CS(=O)(=O)C(C)C)nnc23)o1` [II], the “Observed (O) percentage phytotoxicity” value in experiment [1] (rate 0.31 g/ha) was 5%; in experiment [2] (rate 0.16 g/ha), 4%; in experiment [3] (rate 0.31 g/ha) it was 34%; in experiment [4] (rate 0.31 g/ha) it was 24%; in experiment [5] (rate 0.16 g/ha), 13%; in experiment [5] (rate 0.31 g/ha), 6%.
